Experimental data published in the NIST ThermoML archive (doi:10.1016/j.jct.2017.06.001).
± gives the expanded uncertainty stated by the source.

Assay: xn = mol fraction of the nth substance listed
Conditions: 100 kPa, Liquid; for speed of sound: Frequency=5 MHz, Pulse-echo method; for mass density: Vibrating tube method

OCCCCCO [1,5-pentanediol] + O
speed of sound (288.15 K, x1 = 0.206): 1706.1 ± 1.3 m/s
speed of sound (288.15 K, x1 = 0.2108): 1706.3 ± 1.3 m/s
speed of sound (288.15 K, x1 = 0.2162): 1706.4 ± 1.3 m/s
speed of sound (288.15 K, x1 = 0.2177): 1706.4 ± 1.3 m/s
speed of sound (288.15 K, x1 = 0.2203): 1706.5 ± 1.3 m/s
speed of sound (288.15 K, x1 = 0.2319): 1706.5 ± 1.3 m/s
speed of sound (288.15 K, x1 = 0.2402): 1706.4 ± 1.3 m/s
speed of sound (288.15 K, x1 = 0.25): 1706.2 ± 1.3 m/s
speed of sound (288.15 K, x1 = 0.2599): 1706 ± 1.4 m/s
speed of sound (288.15 K, x1 = 0.2695): 1705.6 ± 1.4 m/s
speed of sound (288.15 K, x1 = 0.283): 1705 ± 1.4 m/s
speed of sound (288.15 K, x1 = 0.3004): 1704.1 ± 1.4 m/s
speed of sound (288.15 K, x1 = 0.3171): 1703 ± 1.4 m/s
speed of sound (288.15 K, x1 = 0.3398): 1701.4 ± 1.4 m/s
speed of sound (288.15 K, x1 = 0.3601): 1699.8 ± 1.4 m/s
speed of sound (288.15 K, x1 = 0.3882): 1697.2 ± 1.5 m/s
speed of sound (288.15 K, x1 = 0.4185): 1694.2 ± 1.5 m/s
speed of sound (288.15 K, x1 = 0.4484): 1690.8 ± 1.6 m/s
speed of sound (288.15 K, x1 = 0.4755): 1687.5 ± 1.6 m/s
speed of sound (288.15 K, x1 = 0.4893): 1685.8 ± 1.6 m/s
speed of sound (288.15 K, x1 = 0.508): 1683.4 ± 1.6 m/s
speed of sound (288.15 K, x1 = 0.5305): 1680.3 ± 1.6 m/s
speed of sound (288.15 K, x1 = 0.5516): 1677.4 ± 1.7 m/s
speed of sound (288.15 K, x1 = 0.5741): 1674.2 ± 1.7 m/s
speed of sound (288.15 K, x1 = 0.5932): 1671.5 ± 1.7 m/s
speed of sound (288.15 K, x1 = 0.6187): 1667.9 ± 1.8 m/s
speed of sound (288.15 K, x1 = 0.6383): 1665 ± 1.8 m/s
speed of sound (288.15 K, x1 = 0.6592): 1662.1 ± 1.8 m/s
speed of sound (288.15 K, x1 = 0.6819): 1658.9 ± 1.8 m/s
speed of sound (288.15 K, x1 = 0.7043): 1655.7 ± 1.9 m/s
speed of sound (288.15 K, x1 = 0.7236): 1653.1 ± 1.9 m/s
speed of sound (288.15 K, x1 = 0.7443): 1650.3 ± 1.9 m/s
speed of sound (288.15 K, x1 = 0.7647): 1647.6 ± 2 m/s
speed of sound (288.15 K, x1 = 0.7836): 1645.2 ± 2 m/s
speed of sound (288.15 K, x1 = 0.8018): 1642.8 ± 2 m/s
speed of sound (288.15 K, x1 = 0.8231): 1640.1 ± 2 m/s
speed of sound (288.15 K, x1 = 0.8417): 1637.8 ± 2.1 m/s
speed of sound (288.15 K, x1 = 0.8609): 1635.4 ± 2.1 m/s
speed of sound (288.15 K, x1 = 0.8783): 1633.2 ± 2.1 m/s
speed of sound (288.15 K, x1 = 0.8967): 1630.9 ± 2.1 m/s
speed of sound (288.15 K, x1 = 0.9133): 1628.7 ± 2.2 m/s
speed of sound (288.15 K, x1 = 0.9388): 1625.3 ± 2.2 m/s
speed of sound (288.15 K, x1 = 0.9515): 1623.6 ± 2.2 m/s
speed of sound (288.15 K, x1 = 0.9651): 1621.7 ± 2.3 m/s
speed of sound (288.15 K, x1 = 0.9837): 1618.9 ± 2.3 m/s
speed of sound (288.15 K, x1 = 1): 1616.4 ± 2.3 m/s
mass density (288.15 K, x1 = 0.005): 998.88 ± 0.53 kg/m3
mass density (288.15 K, x1 = 0.0101): 999.03 ± 1 kg/m3
mass density (288.15 K, x1 = 0.0196): 999.79 ± 1 kg/m3
mass density (288.15 K, x1 = 0.0251): 1000.47 ± 1 kg/m3
mass density (288.15 K, x1 = 0.0304): 1001.25 ± 1 kg/m3
mass density (288.15 K, x1 = 0.05): 1003.56 ± 1 kg/m3
mass density (288.15 K, x1 = 0.0769): 1005.76 ± 1.1 kg/m3
mass density (288.15 K, x1 = 0.1002): 1007.25 ± 1.1 kg/m3
mass density (288.15 K, x1 = 0.1438): 1008.43 ± 1.1 kg/m3
mass density (288.15 K, x1 = 0.1845): 1008.63 ± 1.1 kg/m3
mass density (288.15 K, x1 = 0.2503): 1007.9 ± 1.2 kg/m3
mass density (288.15 K, x1 = 0.3): 1006.94 ± 1.2 kg/m3
mass density (288.15 K, x1 = 0.3343): 1006.2 ± 1.3 kg/m3
mass density (288.15 K, x1 = 0.4171): 1004.47 ± 1.4 kg/m3
mass density (288.15 K, x1 = 0.454): 1003.59 ± 1.4 kg/m3
mass density (288.15 K, x1 = 0.5003): 1002.5 ± 1.5 kg/m3
mass density (288.15 K, x1 = 0.5362): 1001.6 ± 1.5 kg/m3
mass density (288.15 K, x1 = 0.6177): 999.9 ± 1.7 kg/m3
mass density (288.15 K, x1 = 0.6478): 999.3 ± 1.7 kg/m3
mass density (288.15 K, x1 = 0.7025): 998.2 ± 1.8 kg/m3
mass density (288.15 K, x1 = 0.7504): 997.4 ± 1.9 kg/m3
mass density (288.15 K, x1 = 0.7927): 996.5 ± 2 kg/m3
mass density (288.15 K, x1 = 0.8605): 995.2 ± 2.1 kg/m3
mass density (288.15 K, x1 = 0.9004): 994.4 ± 2.2 kg/m3
mass density (288.15 K, x1 = 0.9496): 993.3 ± 2.3 kg/m3
mass density (288.15 K, x1 = 1): 992.2 ± 2.1 kg/m3
speed of sound (293.15 K, x1 = 0.0002): 1483 ± 1.1 m/s
speed of sound (293.15 K, x1 = 0.0004): 1483.8 ± 1.1 m/s
speed of sound (293.15 K, x1 = 0.0005): 1484.4 ± 1.1 m/s
speed of sound (293.15 K, x1 = 0.0008): 1485.6 ± 1.1 m/s
speed of sound (293.15 K, x1 = 0.0012): 1487 ± 1.1 m/s
speed of sound (293.15 K, x1 = 0.0017): 1489 ± 1.1 m/s
speed of sound (293.15 K, x1 = 0.0021): 1490.8 ± 1.1 m/s
